In patent US12466831B2, “Substituted amino triazolopyrimidine and amino triazolopyrazine adenosine receptor antagonists, pharmaceutical compositions and their use” (Merck Sharp & Dohme LLC, priority 2018, dated 2025) one finds IC50 data, which are given here for 15 compounds.

SMILES strings stand for the structures. Some results are limits rather than exact numbers.

Assay [1] addresses T1, human A2b adenosine receptor (Homo sapiens, UniProt P29275).
T1 construct: purchased Perkin Elmer ES-013-C; host or cells: HEK293 cells recombinantly expressing the receptor; membranes made from them
T1 sequence (P29275 1-332): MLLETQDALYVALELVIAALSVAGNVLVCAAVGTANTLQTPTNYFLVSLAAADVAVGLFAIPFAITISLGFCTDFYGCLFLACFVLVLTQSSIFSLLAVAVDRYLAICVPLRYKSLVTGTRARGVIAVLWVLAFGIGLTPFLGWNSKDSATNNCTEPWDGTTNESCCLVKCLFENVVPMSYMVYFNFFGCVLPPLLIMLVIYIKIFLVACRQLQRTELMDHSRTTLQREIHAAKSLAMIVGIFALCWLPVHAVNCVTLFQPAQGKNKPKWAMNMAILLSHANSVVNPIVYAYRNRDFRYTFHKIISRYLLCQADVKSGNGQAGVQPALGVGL
The assay can be described thus: A2b binding affinity, radioligand filtration binding assay. Particulars: tritiated proprietary A2b antagonist, HEK293 membranes expressing human A2b. The text has this: (§1) Method (A) describes the procedure used to measure A2a binding affinity using radioligand binding. Method (B) describes the procedure used to measure A2a binding affinity using SPA technology. The method used to measure A2b binding affinity is also described below. The method used to determine the A2a IC50 value reported for each compound in the table is indicated next to the reported value. The A2b IC50 value measured using the A2b binding affinity assay is shown in the table next to the compound under the corresponding A2a value.
Measurement of A2b Binding Affinity
The reported affinity of the compounds of the invention for the human A2b adenosine receptor was determined experimentally using a radioligand filtration binding assay. This assay measures the amount of binding of a tritiated proprietary A2b receptor antagonist, in the presence and absence of a compound of the invention, to membranes made from HEK293 cells recombinantly expressing the human A2b adenosine receptor (Perkin Elmer, Cat. No. ES-013-C).
148 μL (135 μg/mL) membranes and 2 μL test compounds were transferred to individual wells of a 96-well polypropylene assay plate and incubated for 15 to 30 minutes at room temperature with agitation. Tritiated radioligand was diluted to a concentration of 14 nM in assay buffer (phosphate buffered saline without Magnesium and Calcium, pH 7.4; GE Healthcare Life Sciences, Cat. No. SH30256.01) and then 50 μL of the solution were transferred to each well of the assay plate. To define total and non-specific binding, wells containing 1% DMSO and 20 μM N-ethylcarboxamidoadenosine (Tocris Bioscience, Cat. No. 1691) respectively, were also included. The wells of the assay plate were incubated at room temperature for 60 minutes with agitation, then filtered using a FilterMate Harvester® (Perkin Elmer) or similar equipment through a UniFilter-96® PEI coated plate (Perkin Elmer Cat. No. 6005274 or 6005277). Filtering was achieved by aspirating the contents of the assay plate for 5 seconds, then washing and aspirating the contents three times with ice-cooled wash buffer (assay buffer supplemented with 0.0025% Brij58) and allowing the vacuum manifold to dry the plate for 30 seconds. The filter plate was incubated for at least 1 hour at 55° C. and allowed to dry. The bottom of the filter plate was then sealed with backing tape. 40 μL Ultima Gold™ (Perkin Elmer, Cat. No. 6013329) was added to each well of the filter plate and the top of the plate was sealed with TopSeal-A PLUS® clear plate seal (Perkin Elmer, Cat. No. 6050185). The plates were then incubated for at least 20 minutes, and then the amount of radioactivity remaining in each well was determined using a TopCount® (Perkin Elmer) scintillation counter. After normalization to total and non-specific binding, the percent effect at each compound concentration was calculated. The plot of percent effect versus the log of compound concentration was analyzed electronically using a 4-parameter logistic fit based on the Levenberg-Marquardt algorithm to generate IC50 values.

Assay [2] deals with T2, human A2a adenosine receptor (Homo sapiens, UniProt P29274).
T2 construct: purchased Perkin Elmer RBHA2aM400UA; host or cells: HEK293 or CHO cells (recombinant expression)
Kind of assay: A2a binding affinity using radioligand binding, Method (A). Particulars: Method (A): [3H]SCH58261 filtration binding, membranes expressing human A2a.
Text: as §1
The A2a receptor affinity binding assay measured the amount of binding of a tritiated ligand with high affinity for the A2a adenosine receptor to membranes made from HEK293 or CHO cells recombinantly expressing the human A2a adenosine receptor, in the presence of varying concentrations of a compound of the invention. The data were generated using either filtration binding or a homogenous scintillation proximity assay (SPA).
Method (A): Measurement of A2a Binding Affinity Using Radioligand Binding
148 μL (5 μg/mL) membranes (Perkin Elmer, Cat. No. RBHA2aM400UA) and 2 μL compounds of the invention to be tested (test compound) were transferred to individual wells of a 96-well polypropylene assay plate and incubated for 15 to 30 minutes at room temperature. [^3H] SCH58261 ((7-(2-phenylethyl)-5-amino-2-(2-furyl)-pyrazolo-[4,3-e]-1,2,4-triazolo[1,5-c]pyrimidine)) was diluted in assay buffer (50 mM Tris pH 7.4, 10 mM MgCl2, 0.005% Tween20) to a concentration of 4 nM and 50 μL transferred to each well of the assay plate. To define total and non-specific binding, wells containing 1% DMSO and 1 μM ZM241385 (Tocris Bioscience, Cat. No. 1036) respectively, were also included. The assay plate was incubated at room temperature for 60 minutes with agitation. Using a FilterMate Harvester® (Perkin Elmer), the contents of the assay plate were filtered through a UniFilter-96® PEI coated plate (Perkin Elmer Cat. No. 6005274 or 6005277). Filtering was achieved by aspirating the contents of the assay plate for 5 seconds, then washing and aspirating the contents three times with ice-cooled wash buffer (50 mM Tris-HCl pH 7.4, 150 mM NaCl) and allowing the vacuum manifold to dry the plate for 30 seconds. The filter plate was incubated for at least 1 hour at 55° C. and allowed to dry. The bottom of the filter plate was sealed with backing tape. 40 μL Ultima Gold™ (Perkin Elmer, Cat. No. 6013329) was added to each well of the filter plate and the top of the plate was sealed with TopSeal-A PLUS® clear plate seal (Perkin Elmer, Cat. No. 6050185). The plate was incubated for at least 20 minutes, and then the amount of radioactivity remaining in each well was determined using a TopCount® (Perkin Elmer) scintillation counter. After normalization to total and non-specific binding, the percent effect at each compound concentration was calculated. The plot of percent effect versus the log of compound concentration was analyzed electronically using a 4-parameter logistic fit based on the Levenberg-Marquardt algorithm to generate IC50 values.

T2 sequence (P29274 whole entry): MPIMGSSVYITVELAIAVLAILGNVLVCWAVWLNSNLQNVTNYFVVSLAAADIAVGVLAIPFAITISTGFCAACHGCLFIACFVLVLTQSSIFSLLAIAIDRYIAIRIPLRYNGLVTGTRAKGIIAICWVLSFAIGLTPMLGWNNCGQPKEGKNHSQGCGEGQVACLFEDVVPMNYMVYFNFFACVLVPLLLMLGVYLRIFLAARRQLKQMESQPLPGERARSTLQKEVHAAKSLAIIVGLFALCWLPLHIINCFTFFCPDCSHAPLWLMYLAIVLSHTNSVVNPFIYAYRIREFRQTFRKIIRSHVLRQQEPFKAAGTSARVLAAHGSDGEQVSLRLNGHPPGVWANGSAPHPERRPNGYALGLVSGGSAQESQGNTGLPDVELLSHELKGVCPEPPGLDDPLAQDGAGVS

For `Cc1c(-c2ncco2)nc(N)n2nc([C@@H]3CCCN(c4cnn(C(C)C)c4)C3)nc12` [Example 3.12, (R)-2-(1-(1-isopropyl-1H-pyrazol-4-yl)piperidin-3-yl)-8-methyl-7-(oxazol-2-yl)-[1,2,4]triazolo[1,5-c]pyrimidin-5-amine], the IC50 (commonly the concentration at which inhibition is half-maximal) is 167 nM in assay [1] and 1.2 nM in assay [2].

`Cc1c(-c2cccc(F)c2)nc(N)c2nc(C3CCCC(C)(O)C3)nn12` (single isomer, unassigned) [Example 8.11-2, (1R,3S or 1S,3R or 1R,3R or 1S,3S)-1-3-(8-amino-6-(3-fluorophenyl)-5-methyl-[1,2,4]triazolo[1,5-a]pyrazin-2-yl)-1-methylcyclohexan-1-ol]: the figures for the IC50 in assay [1] and in assay [2] were 238 nM and 13.5 nM, respectively.

For `Cc1nn(CC(C)(C)O)cc1N1CCC[C@@H](c2nc3c(C)c(-c4ncco4)nc(N)n3n2)C1` [Example 3.9, (R)-1-(4-(3-(5-amino-8-methyl-7-(oxazol-2-yl)-[1,2,4]triazolo[1,5-c]pyrimidin-2-yl)piperidin-1-yl)-3-methyl-1H-pyrazol-1-yl)-2-methylpropan-2-ol], the concentration for half-maximal inhibition (IC50) stood at 553 nM in assay [1] and 0.1 nM in assay [2].

For `Cc1c(-c2ncco2)nc(N)n2nc([C@@H]3CCCN(c4cnn(C(C)C(C)(C)O)c4)C3)nc12` (single isomer, unassigned) [Example 2.11, (S or R)-3-(4-((R)-3-(5-amino-8-methyl-7-(oxazol-2-yl)-[1,2,4]triazolo[1,5-c]pyrimidin-2-yl)piperidin-1-yl)-1H-pyrazol-1-yl)-2-methylbutan-2-ol], the IC50 was 81.6 nM in assay [1] and 3.2 nM in assay [2].

As for `Cc1cc(N2CCC[C@@H](c3nc4c(C)c(-c5ncco5)nc(N)n4n3)C2)cnc1OC(F)F` [Example 3.13, (R)-2-(1-(6-(difluoromethoxy)-5-methylpyridin-3-yl)piperidin-3-yl)-8-methyl-7-(oxazol-2-yl)-[1,2,4]triazolo[1,5-c]pyrimidin-5-amine], the values for the IC50 in assay [1] and in assay [2] were 149 nM and 1.6 nM, respectively.

On to `Cc1c(-c2ncco2)nc(N)n2nc(C3CCCC(C)(O)C3)nc12` (single isomer, unassigned) [Example 8.3-1, (1-R or S,3-R or S)-3-(5-amino-8-methyl-7-(oxazol-2-yl)-[1,2,4]triazolo[1,5-c]pyrimidin-2-yl)-1-methylcyclohexan-1-ol], for which the half-inhibitory concentration (IC50) was found to be 5560 nM in assay [1] and 7.9 nM in assay [2].

Turning to `Cc1c(-c2ncco2)nc(N)n2nc([C@@H]3CCCN(c4cnn(CC5(O)CCC5)c4)C3)nc12` [Example 3.8, (R)-1-((4-(3-(5-amino-8-methyl-7-(oxazol-2-yl)-[1,2,4]triazolo[1,5-c]pyrimidin-2-yl)piperidin-1-yl)-1H-pyrazol-1-yl)methyl)cyclobutan-1-ol], the results for the concentration for half-maximal inhibition (IC50) in assay [1] and in assay [2] were 191 nM and 2.7 nM, respectively.

In the case of `Cc1c(-c2ncco2)nc(N)n2nc(C3CCN(c4cnn(CC(C)(C)O)c4)C3)nc12` (single isomer, unassigned) [Example 3.15-2, (R or S)-1-(4-(3-(5-amino-8-methyl-7-(oxazol-2-yl)-[1,2,4]triazolo[1,5-c]pyrimidin-2-yl)pyrrolidin-1-yl)-1H-pyrazol-1-yl)-2-methylpropan-2-ol], the figures for the IC50 in assay [1] and in assay [2] were 9090 nM and 435 nM, respectively.

As to `Cc1c(-c2ncco2)nc(N)c2nc([C@H]3CCCN(c4cnn(C)c4)C3)nn12` (single isomer, unassigned) [Example 2.5-2], the IC50 in assay [1] was 7390 nM; in assay [2], 37.3 nM.

With `Cc1c(-c2ncco2)nc(N)n2nc(C3CCCC(C)(O)C3)nc12` (single isomer, unassigned) [Example 8.3-2, (1-R or S,3-R or S)-3-(5-amino-8-methyl-7-(oxazol-2-yl)-[1,2,4]triazolo[1,5-c]pyrimidin-2-yl)-1-methylcyclohexan-1-ol], the 50% inhibitory concentration (IC50) was 64.5 nM in assay [1] and 0.9 nM in assay [2].

Take `Cc1c(-c2cccc(F)c2)nc(N)c2nc(C3CCCC(C)(O)C3)nn12` (single isomer, unassigned) [Example 8.10-2, (1R,3S or 1S,3R or 1R,3R or 1S,3S)-1-3-(8-amino-6-(3-fluorophenyl)-5-methyl-[1,2,4]triazolo[1,5-a]pyrazin-2-yl)-1-methylcyclohexan-1-ol]: the half-maximal inhibitory concentration (IC50) in assay [1] was found to be 2540 nM; in assay [2] it was 363 nM.

In the case of `Cc1c(-c2ncco2)nc(N)n2nc([C@@H]3CCCN(c4cnn(C(C)C(C)(C)O)c4)C3)nc12` (single isomer, unassigned) [Example 2.10, (R or S)-3-(4-((R)-3-(5-amino-8-methyl-7-(oxazol-2-yl)-[1,2,4]triazolo[1,5-c]pyrimidin-2-yl)piperidin-1-yl)-1H-pyrazol-1-yl)-2-methylbutan-2-ol], the 50% inhibitory concentration (IC50) in assay [1] was determined as 261 nM; in assay [2], 1.2 nM.

On to `Cc1c(-c2ncco2)nc(N)c2nc(C3(c4ncccc4F)CC3)nn12` [Example 2.7, 2-(1-(3-fluoropyridin-2-yl)cyclopropyl)-5-methyl-6-(oxazol-2-yl)-[1,2,4]triazolo[1,5-a]pyrazin-8-amine], for which the half-inhibitory concentration (IC50) in assay [1] stood at 2910 nM; in assay [2] it was 56.4 nM.

In the case of `Cc1c(-c2cccc(F)c2)nc(N)c2nc(C3CCCC(C)(O)C3)nn12` (single isomer, unassigned) [Example 8.11-1, (1R,3S or 1S,3R or 1R,3R or 1S,3S)-1-3-(8-amino-6-(3-fluorophenyl)-5-methyl-[1,2,4]triazolo[1,5-a]pyrazin-2-yl)-1-methylcyclohexan-1-ol], the IC50 is ≥ 10000 nM in assay [1] and 132 nM in assay [2].

Consider `CCn1cc(N2CCC[C@@H](c3nc4c(C)c(-c5ncco5)nc(N)n4n3)C2)cn1` [Example 3.3, (R)-2-(1-(1-ethyl-1H-pyrazol-4-yl)piperidin-3-yl)-8-methyl-7-(oxazol-2-yl)-[1,2,4]triazolo[1,5-c]pyrimidin-5-amine], for which the half-inhibitory concentration (IC50) in assay [1] came out at 155 nM; in assay [2], 0.9 nM.
